In ChEMBL document CHEMBL1201862, “PubChem BioAssay data set” (2004):
The source made the active and inactive calls.

Experiments:
[1] = molecular target: T1, Sentrin-specific protease 8 (Homo sapiens, UniProt Q96LD8); assay type: functional;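 further: luminescence read-out of SENP8 inhibition, dose-response confirmation following an ultra-high-throughput screen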
T1 sequence (Q96LD8 whole entry): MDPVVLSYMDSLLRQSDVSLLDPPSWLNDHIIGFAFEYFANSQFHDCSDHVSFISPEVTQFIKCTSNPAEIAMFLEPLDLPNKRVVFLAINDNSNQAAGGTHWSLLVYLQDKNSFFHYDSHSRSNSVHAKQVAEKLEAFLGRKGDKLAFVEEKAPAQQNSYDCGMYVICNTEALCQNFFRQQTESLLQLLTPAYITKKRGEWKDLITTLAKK

[2] = molecular target: T2, Replicative DNA helicase DnaB (Mycobacterium tuberculosis, UniProt P9WMR3); assay: DnaB intein splicing inhibitors, dose response, biochemical, cell-free fluorescence (AID 449749); assay type: functional
T2 sequence (P9WMR3 whole entry): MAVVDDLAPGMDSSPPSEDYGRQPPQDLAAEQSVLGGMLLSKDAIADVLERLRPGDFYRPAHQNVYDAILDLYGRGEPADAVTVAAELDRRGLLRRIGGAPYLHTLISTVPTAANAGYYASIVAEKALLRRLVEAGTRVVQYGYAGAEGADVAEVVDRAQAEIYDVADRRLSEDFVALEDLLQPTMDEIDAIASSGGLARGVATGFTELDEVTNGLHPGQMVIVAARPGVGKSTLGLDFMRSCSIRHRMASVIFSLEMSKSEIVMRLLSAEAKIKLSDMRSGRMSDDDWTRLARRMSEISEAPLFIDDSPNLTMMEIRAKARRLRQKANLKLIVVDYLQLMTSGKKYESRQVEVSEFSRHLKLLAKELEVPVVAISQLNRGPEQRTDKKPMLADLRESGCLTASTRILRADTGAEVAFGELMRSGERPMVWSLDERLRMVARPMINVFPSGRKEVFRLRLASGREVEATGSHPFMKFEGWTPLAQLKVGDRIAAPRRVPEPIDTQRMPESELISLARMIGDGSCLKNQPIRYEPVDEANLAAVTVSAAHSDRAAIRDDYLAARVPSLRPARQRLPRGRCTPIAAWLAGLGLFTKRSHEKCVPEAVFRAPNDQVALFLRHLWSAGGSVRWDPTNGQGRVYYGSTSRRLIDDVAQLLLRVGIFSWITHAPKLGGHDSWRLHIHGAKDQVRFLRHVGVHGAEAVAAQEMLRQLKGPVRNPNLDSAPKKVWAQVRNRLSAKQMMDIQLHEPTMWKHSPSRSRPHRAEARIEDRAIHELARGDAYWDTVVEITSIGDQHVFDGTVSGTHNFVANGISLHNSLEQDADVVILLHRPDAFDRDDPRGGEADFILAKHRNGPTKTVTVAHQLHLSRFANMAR

Aminopeptidase N = molecular target: T3, Aminopeptidase N (Plasmodium falciparum FcB1/Columbia, UniProt O96935); assay: malaria alanyl aminopeptidase activity blockers – biochemical, fluorogenic H-Leu-NHMec substrate, 1536-well (AID 1445); set-up: species or system Plasmodium falciparum 3D7, 3D7
T3 sequence (O96935 whole entry): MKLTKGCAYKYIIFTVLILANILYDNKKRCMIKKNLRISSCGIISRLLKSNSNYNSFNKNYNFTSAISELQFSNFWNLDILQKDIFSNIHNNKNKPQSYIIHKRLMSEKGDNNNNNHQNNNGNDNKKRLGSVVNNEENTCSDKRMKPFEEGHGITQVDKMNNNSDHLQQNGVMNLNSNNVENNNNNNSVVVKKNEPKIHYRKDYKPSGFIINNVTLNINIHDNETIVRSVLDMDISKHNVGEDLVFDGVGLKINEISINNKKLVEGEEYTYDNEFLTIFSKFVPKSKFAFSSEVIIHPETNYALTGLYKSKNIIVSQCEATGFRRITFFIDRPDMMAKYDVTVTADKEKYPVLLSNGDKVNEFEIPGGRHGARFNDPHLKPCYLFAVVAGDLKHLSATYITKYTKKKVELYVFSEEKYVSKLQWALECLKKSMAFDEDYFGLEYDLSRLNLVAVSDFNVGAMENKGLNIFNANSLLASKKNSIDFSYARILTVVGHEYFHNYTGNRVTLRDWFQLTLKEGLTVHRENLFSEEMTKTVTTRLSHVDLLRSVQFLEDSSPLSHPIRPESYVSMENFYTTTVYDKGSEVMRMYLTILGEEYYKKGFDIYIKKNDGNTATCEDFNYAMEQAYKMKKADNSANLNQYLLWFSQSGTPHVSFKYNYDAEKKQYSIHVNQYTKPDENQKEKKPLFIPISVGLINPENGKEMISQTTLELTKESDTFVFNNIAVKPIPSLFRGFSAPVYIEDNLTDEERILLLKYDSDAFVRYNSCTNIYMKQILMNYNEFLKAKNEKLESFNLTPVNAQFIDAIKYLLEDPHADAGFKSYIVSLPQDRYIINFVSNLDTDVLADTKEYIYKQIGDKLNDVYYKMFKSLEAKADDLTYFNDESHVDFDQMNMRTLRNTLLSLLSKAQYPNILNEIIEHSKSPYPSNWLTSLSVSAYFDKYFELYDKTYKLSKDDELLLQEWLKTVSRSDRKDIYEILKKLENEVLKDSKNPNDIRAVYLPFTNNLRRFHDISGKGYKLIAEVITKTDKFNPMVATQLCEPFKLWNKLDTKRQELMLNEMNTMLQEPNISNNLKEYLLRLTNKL

Row | SMILES | IC50 [1] | AC50 [2] | IC50 (Aminopeptidase N)
1 | c1ccc2c(Nc3nnc(-c4ccncc4)s3)cccc2c1 | > 100 µM (inactive) |  | 
2 | COc1cc(C(=O)c2nccc3cc(OC)c(OC)cc23)c([N+](=O)[O-])cc1OC | 4.97 µM (active) | 0.273 µM (active) | 
3 | N#Cc1c(O)nc(SCC(=O)N2c3ccccc3Sc3ccccc32)nc1-c1ccccc1 |  | 2.41 µM (active) | 11.2 µM (active)
4 | N=C1S/C(=C\c2ccc(-c3ccccc3C(=O)O)o2)C(=O)N1c1ccc2c(c1)OCO2 |  |  | 10.3 µM (active)
